Literature values as cited in patent US20210196697A1, “COMBINATION THERAPIES FOR TREATING BIPOLAR DISORDER AND ADHD, AND METHODS FOR USING THE SAME” (PsychNostics, LLC, priority 2017, published 2021).

Assays:
[1] = test system: SK-N-SH Neuroblastoma Cells; conditions: addition of carbachol to [3H]cytidine-prelabeled cells

Q: Which “accumulation of labeled CDP-DAG” value [1] does the source give for `C[N+](C)(C)CCOC(N)=O` [carbachol] here?
A: four to fivefold increase

Q: With `COC(=O)C(c1ccccc1)C1CCCCN1` (centres unmarked) [MPH, methylphenidate] as the molecule, how does the “effect on MPR” value (ADHD patients) read?
A: reduces the MPR in a dose dependant manner

Q: Which therapeutic level (lithium in BD patients) does the source give for `[Li]` [Li, lithium] here?
A: around 1.2 mM

Q: And the toxic level (lithium in BD patients)?
A: about 2 mM

Q: Which “therapeutic level / therapeutic reference range” value (serum / blood plasma) does the source give for `CN1CCN(C2=Nc3cc(Cl)ccc3Nc3ccccc32)CC1` [clozapine] here?
A: 200 to 1000 ng/mL
